# According to US9211314B2, “Treatment selection for lung cancer patients using mass spectrum of blood-based sample” (Biodesix, Inc., priority 2014, dated 2015):
# Values joined by “and” are separate entries in the source; they are usually repeats but may differ in a detail not shown here. Identical values can stand only once.
# Assays:
# advanced NSCLC patients [1] = assay: PROSE study: second-line erlotinib versus chemotherapy, OS and PFS by VS2.0/VS1.0 classification; format: in vivo, human
# Procedure: The final CMC/D classifier described above was subject to a test on mass spectra obtained from available samples from the PROSE study under a validation protocol. The final CMC/D classifier was deemed fixed prior to this validation protocol. Mass spectra were provided to analysts blinded to their clinical data. The spectra were analyzed as described above and the resulting classifications (Appendix G) were generated. An un-blinding key was then provided and a statistical analysis was carried out.
# For patient 01—044 and patient 01—080, two samples were available. […] No samples were available for patient 01—050, patient 03—006, patient 06—004, patient 06—021, patient 11—043, patient 11—048, and patient 12—014.
# advanced NSCLC patients [2] = conditions: PROSE, patients classified as VSP (VS1.0); cited from earlier work
# advanced NSCLC patients [3] = assay: Time-to-event outcomes (OS, PFS) of development set patients (Italian A, B, C cohorts) grouped by VS2.0/VS1.0 classification; format: in vivo, human; conditions: for Cox HR (95% CI), OS / Cox HR (95% CI), PFS / Median OS / Median PFS: development set
# Description: The following cohorts of patients had samples available for this project: sample sets known as “Italian A”, “Italian B”, “Italian C.” Italian A and B were cohorts of patients with advanced NSCLC treated with gefitinib used in the development and validation of the original VeriStrat test. See generally, U.S. Pat. No. 7,736,905; Taguchi et al., JNCI 99: 838-846 (2007). Italian C was a cohort of patients treated in advanced line with a variety of chemotherapy regimens.
# The VS2.0 final classifier was applied to all samples in the development set. Note that this includes samples included in training of the classifier. The VS2.0 classifications of the development set samples are given in Appendix E. Notice that all samples with a VS1.0 classification of Poor were assigned a label of Early. OS and PFS are plotted for patients in the development set grouped according to: Late, Unknown and Early (excluding VS1.0 Poor) and VS 1.0 Poor in FIG. 6. Note that several patients in the Italian C cohort had OS data, but no PFS data. FIG. 6 is a plot of time-to-event outcomes of patients in the development set with labels assigned from development set spectra; FIG. 6A: OS for gefitinib-treated patients, FIG. 6B: PFS for gefitinib-treated patients, FIG. 6C: OS for chemotherapy-treated patients and FIG. 6D PFS for chemotherapy-treated patients.
# [4] = group Early/Unknown (VS1.0 Good)
# [5] = comparison Early/Unk vs Late within treatment
# [6] = comparison Poor vs Early/Unk within treatment
# [7] = comparison Poor vs Late within treatment
# [8] = group Early/Unknown (excluding VS1.0 Poor)
smiles,measurement,setting,value
"C#Cc1cccc(Nc2ncnc3cc(OCCOC)c(OCCOC)cc23)c1 [ERL, erlotinib]",Median OS,advanced NSCLC patients [1]; [4],9.6 months
same,Median PFS,advanced NSCLC patients [1]; [4],2.3 months
same,Median OS,advanced NSCLC patients [1]; group Late,17.1 months
same,Median PFS,advanced NSCLC patients [1]; group Late,3.9 months
same,Median OS,"advanced NSCLC patients [1]; group Late, listed as erlotinib",17.1 months and 17 months
same,Median OS,advanced NSCLC patients [1]; group VS1.0 Poor,3.1 months
same,Median PFS,advanced NSCLC patients [1]; group VS1.0 Poor,1.7 months
same,"HR (95% CI), OS, Treatment: CT vs ERL",advanced NSCLC patients [1]; multivariate analysis of VS1.0 Good population,1.12 (0.85-1.65)
same,"Survival, erlotinib versus chemotherapy",advanced NSCLC patients [2],better survival on chemotherapy versus erlotinib
"COc1cc2ncnc(Nc3ccc(F)c(Cl)c3)c2cc1OCCCN1CCOCC1 [GEF, gefitinib]","Cox HR (95% CI), OS",advanced NSCLC patients [3]; [5],0.59 (0.37-0.94)
same,"Cox HR (95% CI), PFS",advanced NSCLC patients [3]; [5],0.58 (0.37-0.91)
same,"Cox HR (95% CI), OS",advanced NSCLC patients [3]; [6],0.49 (0.33-0.75)
same,"Cox HR (95% CI), PFS",advanced NSCLC patients [3]; [6],0.64 (0.42-0.95)
same,"Cox HR (95% CI), OS",advanced NSCLC patients [3]; [7],0.30 (0.18-0.49)
same,"Cox HR (95% CI), PFS",advanced NSCLC patients [3]; [7],0.36 (0.22-0.60)
same,Median OS,advanced NSCLC patients [3]; [8],243 days
same,Median PFS,advanced NSCLC patients [3]; [8],92 days
same,Median OS,advanced NSCLC patients [3]; group Late,457 days
same,Median PFS,advanced NSCLC patients [3]; group Late,208 days
same,Median OS,advanced NSCLC patients [3]; group VS1.0 Poor,96.5 days
same,Median PFS,advanced NSCLC patients [3]; group VS1.0 Poor,61.5 days
same,"Benefit by overall survival curves, gefitinib versus chemotherapy","advanced NSCLC patients [3]; patients whose sample tested Late, FIGS. 6A and 6C",greater benefit from gefitinib than chemotherapy
